Patent US4521422A, “Aryl and heteroaryl[7-(aryl and heteroaryl)pyrazolo[1,5-a]pyrimidin-3-yl]methanones” (American Cyanamid Company, priority 1984, dated 1985)

Key:
[1] = tested on: Nonconditioned Passive Avoidance in Rats; assay: Nonconditioned passive avoidance (conflict) test in rats; assay type: in vivo, rat (Wistar); design: key: Active: considered active if the number of shocks received by the test group is significantly higher than the control group by the Mann-Witney U test; details: oral or i.p.
Description: Another test which has been used to assess anti-anxiety effects is a nonconditioned passive avoidance procedure described by [J. R. Vogel, B. Beer and D. E. Clody, "A Simple and Reliable Conflict Procedure for Testing Anti-Anxiety Agents", Psychopharmacologia, 21, 1-7 (1971)]. A conflict situation is induced in rats by a modification of this method.
Groups of 6 naive, Wistar strain rats, weighing 200-240 g each were deprived of water for 48 hours and food for 24 hours. The test compounds were administered in single or graded, oral or intraperitoneal doses, suspended in a 2% starch vehicle containing 0.5% v/v polyethylene glycol and one drop of polysorbate 80. Control animals received the vehicle alone. At 30 to 60 minutes each rat was placed in an individual plexiglass chamber. Water was available ad libitum from a tap located in the rear of the chamber. A 0.7 milliampere DC shocking current was established between the stainless steel grid floor and the tap. After 20 licks of non-shocked drinking, a shock was delivered for 2 seconds and then further shocks were delivered on a ratio of one shock for 2 seconds for every 20 licks. This was continued for a total of 3 minutes. The number of shocks taken by each rat during the 3 minute interval was recorded and compared to a control group. […]

[2] = tested on: Brain-Specific Receptors of Rats; assay: Inhibition of the binding of 3H-benzodiazepine to brain-specific receptors of rats; design: species or system rat (Wistar); details: 3H-diazepam 1.5 nM or 3H-flunitrazepam 1.0 nM; rat cortex P2 fraction; test concentration not given
[3] = tested on: Clonic Seizures Caused by Pentylenetetrazole in Rats; assay: Protection against clonic seizures caused by pentylenetetrazole in rats; assay type: in vivo; details: Rattus norvegicus, oral or i.p., read-out: % of Rats Protected; for responders at 25 mg/kg: pentylenetetrazole 23 mg/kg i.v. at 30 or 60 min
Method in brief: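 Rats (at least 4 per group) given single or graded oral or intraperitoneal doses in starch/PEG/Polysorbate 80 vehicle. After 30 or 60 min, pentylenetetrazole 23 mg/kg i.v. was given, a dose expected to induce clonic seizures in 99% of unprotected rats. Protection from convulsions was scored.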

[4] = pentylenetetrazole 23 mg/kg i.v.

Compound | Result (nonconditioned passive avoidance) ([1]; dose 25.0 mg/kg) | % Inhibition [2] [%] | responders at 25 mg/kg [3] [%] | other results
O=C(c1ccccn1)c1cnn2c(-c3cccnc3)ccnc12 [2-Pyridinyl[7-(3-pyridinyl)pyrazolo[1,5-a]pyrimidin-3-yl]methanone] | Active | 98 | 75 | 
Cc1cnc2c(C(=O)c3ccccc3)cnn2c1-c1ccncc1 [[6-methyl-7-(4-pyridinyl)pyrazolo[1,5-a]pyrimidin-3-yl]phenyl-methanone] | Active | 56 | 100 | 
O=C(c1ccc(F)cc1)c1cnn2c(-c3ccc(F)cc3)ccnc12 [(4-fluorophenyl)[7-(4-fluorophenyl)pyrazolo[1,5-a]pyrimidin-3-yl]methanone] | Active | 34 | 75 | 
CCC(=O)N(CC)c1cccc(-c2ccnc3c(C(=O)c4ccccc4)cnn23)c1 [N-[3-(3-Benzoylpyrazolo[1,5-a]pyrimidin-7-yl)phenyl]N-ethylpropanamide] |  |  |  | Result (nonconditioned passive avoidance) ([1]; dose 12.5 mg/kg): Active; responders at 12.5 mg/kg [3, 4]: 100%
O=C(c1ccccn1)c1cnn2c(-c3ccc(F)cc3)ccnc12 [[7-(4-fluorophenyl)pyrazolo[1,5-a]pyrimidin-3-yl]-2-pyridinyl-methanone] | Active | 64 | 50 | 
O=C(c1ccccc1F)c1cnn2c(-c3ccncc3)ccnc12 [(2-fluorophenyl)[7-(4-pyridinyl)pyrazolo[1,5-a]pyrimidin-3-yl]methanone] | Active |  | 50 | 
O=C(c1ccc(F)cc1)c1cnn2c(-c3cccc(C(F)(F)F)c3)ccnc12 [(4-fluorophenyl)[7-[3-(trifluoromethyl)phenyl]pyrazolo[1,5-a]pyrimidin-3-yl]methanone] | Active | 50 |  | responders at 12.5 mg/kg [3, 4]: 38%
O=C(c1cccc(C(F)(F)F)c1)c1cnn2c(-c3cccnc3)ccnc12 [[7-(3-pyridinyl)pyrazolo[1,5-a]pyrimidin-3-yl][3-(trifluoromethyl)phenyl]methanone] | Active | 38 |  | 
O=C(c1ccccc1)c1cnn2c(-c3cc[n+]([O-])cc3)ccnc12 [Phenyl[7-(4-pyridinyl)pyrazolo[1,5-a]pyrimidin-3-yl]methanone, pyridine-1-oxide] | Active | 39 | 100 | 
O=C(c1ccc(F)cc1)c1cnn2c(-c3cccnc3)ccnc12 [(4-fluorophenyl)[7-(3-pyridinyl)pyrazolo[1,5-a]pyrimidin-3-yl]methanone] | Active |  | 63 | 
CCNc1cccc(-c2ccnc3c(C(=O)c4ccco4)cnn23)c1 [[7-[3-(Ethylamino)phenyl]pyrazolo[1,5-a]pyrimidin-3-yl]-2-furanylmethanone] | Active |  | 100 | 
O=C(c1ccco1)c1cnn2c(-c3ccncc3)ccnc12 [2-furanyl[7-(4-pyridinyl)pyrazolo[1,5-a]pyrimidin-3-yl]methanone] | Active | 19 | 25 | 
O=C(c1ccncc1)c1cnn2c(-c3cccnc3)ccnc12 [4-pyridinyl[7-(3-pyridinyl)pyrazolo[1,5-a]pyrimidin-3-yl]methanone] | Active |  | 100 | 
O=C(c1cccs1)c1cnn2c(-c3cccc(C(F)(F)F)c3)ccnc12 [2-thienyl[7-[3-(trifluoromethyl)phenyl]pyrazolo[1,5-a]pyrimidin-3-yl]methanone] | Active | 99 | 100 | 
O=C(c1ccc(Cl)cc1)c1cnn2c(-c3cccc(C(F)(F)F)c3)ccnc12 [(4-chlorophenyl)[7-[3-(trifluoromethyl)phenyl]pyrazolo[1,5-a]pyrimidin-3-yl]methanone] | Active | 81 |  | 
CN(C)c1ccc(C(=O)c2cnn3c(-c4cccnc4)ccnc23)cc1 [[4-(dimethylamino)phenyl][7-(3-pyridinyl)pyrazolo[1,5-a]pyrimidin-3-yl]methanone] | Active |  | 100 | 

Compound | Result (nonconditioned passive avoidance) ([1]; dose 25.0 mg/kg) | % Inhibition [2] [%] | responders at 25 mg/kg [3] [%] | other results
CC(=O)N(C)c1cccc(-c2ccnc3c(C(=O)c4ccco4)cnn23)c1 [N-[3-[3-(2-Furancarbonyl)pyrazolo[1,5-a]pyrimidin-7-yl]phenyl]-N-methylacetamide] | Active |  | 100 | 
O=C(c1ccsc1)c1cnn2c(-c3cccnc3)ccnc12 [[7-(3-pyridinyl)pyrazolo[1,5-a]pyrimidin-3-yl]-3-thienylmethanone] | Active |  | 50 | 
CCN(C(C)=O)c1cccc(-c2ccnc3c(C(=O)c4ccco4)cnn23)c1 [N--ethyl-N--[3-[3-(2-furanylcarbonyl)pyrazolo[1,5-a]pyrimidin-7-yl]phenyl]acetamide] |  |  |  | Result (nonconditioned passive avoidance) ([1]; dose 12.5 mg/kg): Active; responders at 12.5 mg/kg [3, 4]: 100%
Cc1cccc(C(=O)c2cnn3c(-c4cccnc4)ccnc23)c1 [(3-methylphenyl)[7-(3-pyridinyl)pyrazolo[1,5-a]pyrimidin-3-yl]methanone] | Active | 70 | 100 | 
O=C(c1cccc(F)c1)c1cnn2c(-c3cccnc3)ccnc12 [(3-fluorophenyl)[7-(3-pyridinyl)pyrazolo[1,5-a]pyrimidin-3-yl]methanone] | Active | 20 | 100 | 
CCN(C(C)=O)c1cccc(-c2ccnc3c(C(=O)c4ccccc4)cnn23)c1 [N-[3-(3-Benzoylpyrazolo[1,5-a]pyrimidin-7-yl)phenyl]-N-ethylacetamide] | Active |  |  | responders at 6.2 mg/kg ([3]; dose 6.2 mg/kg, pentylenetetrazole 23 mg/kg i.v.): 100%
O=C(c1ccncc1)c1cnn2c(-c3ccncc3)ccnc12 [4-pyridinyl[7-(4-pyridinyl)pyrazolo[1,5-a]pyrimidin-3-yl]methanone] | Active | 11 |  | 
O=C(c1ccncc1)c1cnn2c(-c3cccc(C(F)(F)F)c3)ccnc12 [4-pyridinyl[7-[3-(trifluoromethyl)phenyl]pyrazolo[1,5-a]pyrimidin-3-yl]methanone] | Active |  | 100 | 
CCNc1cccc(-c2ccnc3c(C(=O)c4ccccc4)cnn23)c1 [[7-[3-(Ethylamino)phenyl]pyrazolo[1,5-a]pyrimidin-3-yl]phenylmethanone] | Active |  | 100 | 
Cc1ccc(C(=O)c2cnn3c(-c4cccc(C(F)(F)F)c4)ccnc23)cc1 [(4-methylphenyl)[7-[3-(trifluoromethyl)phenyl]pyrazolo[1,5-a]pyrimidin-3-yl]methanone] |  |  | 50 | Result (nonconditioned passive avoidance) ([1]; dose 12.5 mg/kg): Active
O=C(c1ccccc1)c1cnn2c(-c3ccc(F)cc3)ccnc12 [[7-(4-fluorophenyl)pyrazolo[1,5-a]pyrimidin-3-yl]phenyl-methanone] | Active | 18 | 100 | 
CCC(=O)N(C)c1cccc(-c2ccnc3c(C(=O)c4ccccc4)cnn23)c1 [N-[3-(3-Benzoylpyrazolo[1,5-a]pyrimidin-7-yl)phenyl]-N-methylpropanamide] |  |  |  | Result (nonconditioned passive avoidance) ([1]; dose 1.5 mg/kg): Active; responders at 0.8 mg/kg ([3]; dose 0.8 mg/kg, pentylenetetrazole 23 mg/kg i.v.): 100%
CN(C)c1ccc(C(=O)c2cnn3c(-c4cccc(C(F)(F)F)c4)ccnc23)cc1 [[4-(dimethylamino)phenyl][7-[3-(trifluoromethyl)phenyl]pyrazolo[1,5-a]pyrimidin-3-yl]methanone] | Active |  | 100 | 
O=C(c1ccc2c(c1)OCO2)c1cnn2c(-c3cccnc3)ccnc12 [1,3-benzodioxol-5-yl[7-(3-pyridinyl)pyrazolo[1,5-a]pyrimidin-3-yl]methanone] | Active |  | 50 | 
O=C(c1ccoc1)c1cnn2c(-c3cccnc3)ccnc12 [3-furanyl[7-(3-pyridinyl)pyrazolo[1,5-a]pyrimidin-3-yl]methanone] | Active | 77 | 100 | 
